Assay results reported in PubChem BioAssay AID256 (DTP/NCI, 2004).
Values joined by “and” are separate entries in the source; they are usually repeats but may differ in a detail not shown here. Equal entries are not always repeated. Toxic doses and inconclusive results are not listed. The calls were made as follows: active = survival T/C of 150% or more; inactive = T/C below 125% in these data.

System: CD2F1 mice, L1210 leukemia ip, survival T/C
Test: NCI In Vivo Anticancer Drug Screen. Data for tumor model L1210 Leukemia (intraperitoneal) in CD2F1 (CDF1) mice
Details: endpoint: mean survival time, higher = longer survival
Outline: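 Transplantable tumor in mice; compound-treated vs vehicle-treated groups. Read-out = treated/control ratio of the measured endpoint.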

[1] = dose: 50.0 mg/kg/injection, schedule: Q04DX002 (ip), vehicle: saline with Tween-80
[2] = dose: 100.0 mg/kg/injection, schedule: Q04DX002 (ip), vehicle: saline with Tween-80
[3] = dose: 200.0 mg/kg/injection, schedule: Q04DX002 (ip), vehicle: saline with Tween-80
[4] = dose: 100.0 mg/kg/injection, schedule: Q04DX003 (ip), vehicle: saline with Tween-80
[5] = dose: 200.0 mg/kg/injection, schedule: Q04DX003 (ip), vehicle: saline with Tween-80
[6] = dose: 400.0 mg/kg/injection, schedule: Q04DX003 (ip), vehicle: saline with Tween-80
[7] = dose: 50.0 mg/kg/injection, schedule: Q01DX009 (ip), vehicle: saline
[8] = dose: 25.0 mg/kg/injection, schedule: Q04DX002 (ip), vehicle: saline with Tween-80
[9] = dose: 400.0 mg/kg/injection, schedule: Q04DX002 (ip), vehicle: saline with Tween-80
[10] = dose: 100.0 mg/kg/injection, schedule: Q01DX009 (ip), vehicle: saline
[11] = dose: 200.0 mg/kg/injection, schedule: Q01DX009 (ip), vehicle: saline

Measured: T/C

CCCCCC1SC1CC1SC1CCCCCCCC(=O)N(CCCC)CCCC (configuration not stated)
inactive: dose: 75.0 mg/kg/injection, schedule: Q04DX003 (ip), vehicle: saline 98 % of control | dose: 150.0 mg/kg/injection, schedule: Q04DX003 (ip), vehicle: saline 107 % of control | dose: 300.0 mg/kg/injection, schedule: Q04DX003 (ip), vehicle: saline 97 % of control

CC1CCOC(c2ccccc2)O1 (configuration not stated)
inactive: [1] 102 % of control | [2] 94 % of control | [3] 97 % of control

O=C(Nc1cccc2c1C(=O)c1ccc(Nc3cc(NC(=O)c4ccccc4)c4c(c3)C(=O)c3ccccc3C4=O)cc1C2=O)c1ccccc1
inactive: dose: 100.0 mg/kg/injection, schedule: Q01DX009 (ip), vehicle: saline with Tween-80 106 % of control | [4] 102 % of control | dose: 200.0 mg/kg/injection, schedule: Q01DX009 (ip), vehicle: saline with Tween-80 102 % of control | [5] 102 % of control | dose: 400.0 mg/kg/injection, schedule: Q01DX009 (ip), vehicle: saline with Tween-80 119 % of control | [6] 96 % of control

Cc1cc(C(O)CNCCCn2c(N3CCOCC3)nc3c2c(=O)n(C)c(=O)n3C)ccc1O (configuration not stated)
inactive: dose: 12.5 mg/kg/injection, schedule: Q01DX005 (ip), vehicle: water 96 % of control | dose: 25.0 mg/kg/injection, schedule: Q01DX005 (ip), vehicle: water 97 % of control | dose: 50.0 mg/kg/injection, schedule: Q01DX005 (ip), vehicle: water 97 % of control | dose: 100.0 mg/kg/injection, schedule: Q01DX005 (ip), vehicle: water 96 % of control | dose: 200.0 mg/kg/injection, schedule: Q01DX005 (ip), vehicle: water 100 % of control

C=CCOCC(O)CNCCCC (configuration not stated)
inactive: dose: 12.5 mg/kg/injection, schedule: Q01DX009 (ip), vehicle: saline 96 % of control | dose: 25.0 mg/kg/injection, schedule: Q01DX009 (ip), vehicle: saline 107 % of control | [7] 96 % of control and 111 % of control

NC(=S)N/N=C/c1ccc(Br)cn1
inactive: dose: 12.5 mg/kg/injection, schedule: Q04DX002 (ip), vehicle: saline with Tween-80 110 % of control | [8] 110 % of control

CN(N=O)P(=O)(Nc1ccccc1)Nc1ccccc1
inactive: dose: 25.0 mg/kg/injection, schedule: Q04DX003 (ip), vehicle: other 101 % of control | dose: 50.0 mg/kg/injection, schedule: Q04DX003 (ip), vehicle: other 98 % of control | dose: 100.0 mg/kg/injection, schedule: Q04DX003 (ip), vehicle: other 103 % of control

CCOC(=S)S
inactive: dose: 100.0 mg/kg/injection, schedule: Q01DX009 (ip), vehicle: saline sonified 103 % of control | dose: 100.0 mg/kg/injection, schedule: Q04DX003 (ip), vehicle: saline 96 % of control | dose: 200.0 mg/kg/injection, schedule: Q01DX009 (ip), vehicle: saline sonified 97 % of control | dose: 400.0 mg/kg/injection, schedule: Q04DX003 (ip), vehicle: saline 104 % of control

CCOC(CCCO)OCC
inactive: [2] 103 % of control | [3] 100 % of control | [9] 103 % of control

BrCC[CH2][Sn]([Br])([Br])[Br]
inactive: [7] 103 % of control | [10] 91 % of control | [11] 95 % of control

O=C1NC(c2ccccc2Cl)Nc2ccccc21 (configuration not stated)
inactive: dose: 50.0 mg/kg/injection, schedule: Q01DX009 (ip), vehicle: Klucel (hydroxypropylcellulose) (HPC) 91 % of control | dose: 100.0 mg/kg/injection, schedule: Q01DX009 (ip), vehicle: Klucel (hydroxypropylcellulose) (HPC) 107 % of control | dose: 200.0 mg/kg/injection, schedule: Q01DX009 (ip), vehicle: Klucel (hydroxypropylcellulose) (HPC) 93 % of control | dose: 400.0 mg/kg/injection, schedule: Q01DX009 (ip), vehicle: Klucel (hydroxypropylcellulose) (HPC) 93 % of control

CCCC1CC[N-]CC1.CCCC1CC[N-]CC1.CCCC1CC[N-]CC1.CCCC1CC[N-]CC1.[Cl][Rh][Cl]
inactive: dose: 25.0 mg/kg/injection, schedule: Q04DX003 (ip), vehicle: saline with Tween-80 90 % of control

O=C(O)C1C=CCC(C(=O)O)C1 (configuration not stated)
inactive: [7] 101 % of control | [10] 97 % of control | [11] 101 % of control

CCOC(=O)CN1CC(=O)Nc2ccccc21
inactive: [4] 95 % of control | [5] 98 % of control | [6] 111 % of control

NC(CSS(=O)(=O)O)=NCc1cccs1
inactive: [8] 95 % of control | [1] 115 % of control

O=C=Nc1ccc(Cl)c(Cl)c1 (tested in a mixture with another compound)
inactive: [1] 97 % of control | [2] 108 % of control | [3] 93 % of control | [9] 89 % of control
